Assay results taken from patent US9738655B2, “Tetrahydroisoquinolines containing substituted azoles as factor XIa inhibitors” (BRISTOL-MYERS SQUIBB COMPANY, priority 2013, dated 2017).
Where a name gives a salt, the structure may show the parent alone. Read-outs that look alike come from different tables or passages of the source.

How the values were obtained:
[1] = biological target: purified human Factor XIa (Homo sapiens (Human), UniProt P03951); assay: Factor XIa enzyme inhibition assay (chromogenic substrate S-2366)
purified human Factor XIa, sequence (P03951 388-625): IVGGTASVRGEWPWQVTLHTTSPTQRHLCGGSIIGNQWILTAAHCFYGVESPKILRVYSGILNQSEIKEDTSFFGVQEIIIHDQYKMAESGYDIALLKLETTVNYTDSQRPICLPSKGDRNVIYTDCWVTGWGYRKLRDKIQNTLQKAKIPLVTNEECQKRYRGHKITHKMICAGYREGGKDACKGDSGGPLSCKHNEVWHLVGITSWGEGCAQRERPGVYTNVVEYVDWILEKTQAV
purified human Factor XIa, sequence (P03951 19-387 partner): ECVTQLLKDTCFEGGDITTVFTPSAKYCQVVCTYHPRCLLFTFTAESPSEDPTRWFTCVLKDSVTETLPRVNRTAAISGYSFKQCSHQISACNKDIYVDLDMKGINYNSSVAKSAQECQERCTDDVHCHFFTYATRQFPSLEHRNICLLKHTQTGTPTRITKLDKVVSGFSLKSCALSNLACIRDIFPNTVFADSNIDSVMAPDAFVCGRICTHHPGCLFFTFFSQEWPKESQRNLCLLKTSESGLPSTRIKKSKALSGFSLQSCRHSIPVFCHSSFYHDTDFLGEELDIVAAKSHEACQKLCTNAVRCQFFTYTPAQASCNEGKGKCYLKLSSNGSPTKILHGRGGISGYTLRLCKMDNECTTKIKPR

[2] = biological target: purified human plasma kallikrein (Homo sapiens (Human), UniProt P03952); assay: Plasma kallikrein enzyme inhibition assay (chromogenic substrate S-2302); assay type: biochemical
purified human plasma kallikrein, sequence (P03952 391-638): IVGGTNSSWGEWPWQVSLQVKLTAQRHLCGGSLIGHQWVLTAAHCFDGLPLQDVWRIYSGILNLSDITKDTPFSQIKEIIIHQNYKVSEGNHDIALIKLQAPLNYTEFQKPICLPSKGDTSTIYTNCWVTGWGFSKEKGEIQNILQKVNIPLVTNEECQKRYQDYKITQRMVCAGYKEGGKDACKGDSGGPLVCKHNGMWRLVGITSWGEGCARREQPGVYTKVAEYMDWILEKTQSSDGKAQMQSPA
purified human plasma kallikrein, sequence (P03952 20-390 partner): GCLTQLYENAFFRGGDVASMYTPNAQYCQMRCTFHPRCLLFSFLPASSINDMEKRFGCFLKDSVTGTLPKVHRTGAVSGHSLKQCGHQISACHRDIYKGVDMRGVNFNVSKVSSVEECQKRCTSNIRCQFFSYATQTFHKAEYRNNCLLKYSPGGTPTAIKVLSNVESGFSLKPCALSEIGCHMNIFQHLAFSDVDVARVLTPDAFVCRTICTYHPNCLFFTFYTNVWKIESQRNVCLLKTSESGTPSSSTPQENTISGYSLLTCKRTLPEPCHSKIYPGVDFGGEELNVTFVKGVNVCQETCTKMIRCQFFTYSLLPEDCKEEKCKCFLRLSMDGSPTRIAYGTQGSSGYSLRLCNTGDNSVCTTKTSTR

[3] = read-out: Factor XIa Ki, measured at 25° C.
[4] = measured at 25° C. (no asterisk)

Compound | Ki [1, 3] [nM] | Ki [2, 4] [nM] | also measured
O=C(O)c1ccc(NC(=O)[C@@H]2c3cccc(-c4cncnc4)c3CCN2C(=O)c2cn(-c3cccc(Cl)c3F)nn2)cc1 [Example 14, (S)-4-(2-(1-(3-Chloro-2-fluorophenyl)-1H-1,2,3-triazole-4-carbonyl)-5-(pyrimidin-5-yl)-1,2,3,4-tetrahydroisoquinoline-1-carboxamido)benzoic acid] | < 5 | 6.27 | 
Cc1c(C(=O)N2CCc3c(-c4ccc(C(=O)NCCN(C)C)cc4)cccc3C2C(=O)Nc2ccc(C(=O)O)cc2)nnn1-c1cccc(Cl)c1F (stereo not shown) [Example 7, 4-(2-(1-(3-Chloro-2-fluorophenyl)-5-methyl-1H-1,2,3-triazole-4-carbonyl)-5-(4-((2-(dimethylamino)ethyl)carbamoyl)phenyl)-1,2,3,4-tetrahydroisoquinoline-1-carboxamido)benzoic acid, TFA salt] | < 5 | 29.9 | 
O=C(O)c1ccc(NC(=O)C2c3cccc(N4CCC(N5CCCC5=O)CC4)c3CCN2C(=O)c2cn(-c3cccc(Cl)c3F)cn2)cc1 (stereo not shown) [Example 92, 4-(2-(1-(3-Chloro-2-fluorophenyl)-1H-imidazole-4-carbonyl)-5-(4-(2-oxopyrrolidin-1-yl)piperidin-1-yl)-1,2,3,4-tetrahydroisoquinoline-1-carboxamido)benzoic acid, TFA salt] | < 5 | 5.6 | 
COC1CCN(c2cccc3c2CCN(C(=O)N2CCCC(c4cccc(Cl)c4F)C2)C3C(=O)Nc2ccc(C(=O)O)cc2)CC1 (stereo not shown) [Example 326, 4-(2-(3-(3-Chloro-2-fluorophenyl)piperidine-1-carbonyl)-5-(4-methoxypiperidin-1-yl)-1,2,3,4-tetrahydroisoquinoline-1-carboxamido)benzoic acid, TFA salt] |  |  | Ki [1]: 330 nM; Ki ([2]; measured at 37° C. (*)): > 2000 nM
COC(=O)c1ccc(NC(=O)[C@@H]2c3cccc(-c4cncnc4)c3CCN2C(=O)c2cn(-c3cccc(Cl)c3F)nn2)cc1 [Example 26, (S)-Methyl 4-(2-(1-(3-chloro-2-fluorophenyl)-1H-1,2,3-triazole-4-carbonyl)-5-(pyrimidin-5-yl)-1,2,3,4-tetrahydroisoquinoline-1-carboxamido)benzoate] | 7.07 |  | Ki ([2]; measured at 37° C. (*)): 62 nM
O=C(Nc1ccc(-c2ncc[nH]2)cc1)[C@H]1c2cccc(-c3cncnc3)c2CCN1C(=O)c1cn(-c2cccc(Cl)c2F)nn1 [Example 139, (R)-N-(4-(1H-Imidazol-2-yl)phenyl)-2-(1-(3-chloro-2-fluorophenyl)-1H-1,2,3-triazole-4-carbonyl)-5-(pyrimidin-5-yl)-1,2,3,4-tetrahydroisoquinoline-1-carboxamide, TFA salt] | 133 |  | Ki ([2]; measured at 37° C. (*)): > 13000 nM
O=C(O)c1ccc(NC(=O)C2c3cccc(N4CCC(N5CCCC5)CC4)c3CCN2C(=O)C2CC(c3cccc(Cl)c3)=NO2)cc1 (single isomer, unassigned) [Example 204, 4-(2-(3-(3-chlorophenyl)-4,5-dihydroisoxazole-5-carbonyl)-5-(4-(pyrrolidin-1-yl)piperidin-1-yl)-1,2,3,4-tetrahydroisoquinoline-1-carboxamido)benzoic acid, 2 TFA salt] | < 5 | 11 | 
O=C(Nc1ccc(-c2ncc[nH]2)cc1)[C@@H]1c2cccc(-c3cncnc3)c2CCN1C(=O)[C@H]1CC(c2cccc(Cl)c2F)=NO1 [Example 134, (S)-N-(4-(1H-Imidazol-2-yl)phenyl)-2-((R)-3-(3-chloro-2-fluorophenyl)-4,5-dihydroisoxazole-5-carbonyl)-5-(pyrimidin-5-yl)-1,2,3,4-tetrahydroisoquinoline-1-carboxamide, TFA salt] | < 5 |  | Ki ([2]; measured at 37° C. (*)): 24.4 nM
O=C(O)c1ccc(NC(=O)C2c3cccc(Cl)c3CCN2C(=O)c2cn(-c3cccc(Cl)c3F)nn2)cc1 (stereo not shown) [Example 194, 4-(5-Chloro-2-(1-(3-chloro-2-fluorophenyl)-1H-1,2,3-triazole-4-carbonyl)-1,2,3,4-tetrahydroisoquinoline-1-carboxamido)benzoic acid] |  | 41.5 | Ki [1]: 57.1 nM
CN1CCN(c2cccc3c2CCN(C(=O)c2cnn(-c4cccc(Cl)c4F)c2N)C3C(=O)Nc2ccc(C(=O)O)cc2)CC1=O (stereo not shown) [Example 318, 4-(2-(5-Amino-1-(3-chloro-2-fluorophenyl)-1H-pyrazole-4-carbonyl)-5-(4-methyl-3-oxopiperazin-1-yl)-1,2,3,4-tetrahydroisoquinoline-1-carboxamido)benzoic acid, TFA salt] | < 5 | 21.1 | 
O=C(O)c1ccc(NC(=O)[C@@H]2c3cccc(N4CCN(CC(F)(F)F)CC4)c3CCN2C(=O)[C@H]2CC(c3cccc(Cl)c3F)=NO2)cc1 [Example 230, 4-((S)-2-((R)-3-(3-Chloro-2-fluorophenyl)-4,5-dihydroisoxazole-5-carbonyl)-5-(4-(2,2,2-trifluoroethyl)piperazin-1-yl)-1,2,3,4-tetrahydroisoquinoline-1-carboxamido)benzoic acid, 2 TFA salt] |  |  | Ki ([1]; read-out: Factor XIa Ki): < 5 nM; Ki ([2]; measured at 37° C. (*)): 12.3 nM

Now from value to compound, other results behind:

Ki [1, 3] [nM] | Ki [2, 4] [nM] | Compound | also measured
 | 7.65 | COC1CCN(c2cccc3c2CCN(C(=O)c2cn(-c4cccc(Cl)c4F)cn2)C3C(=O)Nc2ccc(C(=O)O)cc2)CC1 (racemic) [Example 271, 4-(2-(1-(3-chloro-2-fluorophenyl)-1H-imidazole-4-carbonyl)-5-(4-methoxypiperidin-1-yl)-1,2,3,4-tetrahydroisoquinoline-1-carboxamido)benzoic acid, TFA salt] | Ki [1]: < 5 nM
 | 578 | COC1CCN(c2cccc3c2CCN(C(=O)c2cnn(-c4cccc(Cl)c4F)c2)[C@H]3C(=O)Nc2ccc(C(=O)O)cc2)CC1 [Example 316, (R)-4-(2-(1-(3-chloro-2-fluorophenyl)-1H-pyrazole-4-carbonyl)-5-(4-methoxypiperidin-1-yl)-1,2,3,4-tetrahydroisoquinoline-1-carboxamido)benzoic acid, TFA salt] | Ki [1]: 42.9 nM
< 5 | 1.39 | CN(C)C1CCN(c2cccc3c2CCN(C(=O)c2cn(-c4cccc(Cl)c4F)nn2)C3C(=O)Nc2ccc(-c3cn[nH]c3)cc2)CC1 (stereo not shown) [Example 102, N-(4-(1H-Pyrazol-4-yl)phenyl)-2-(1-(3-chloro-2-fluorophenyl)-1H-1,2,3-triazole-4-carbonyl)-5-(4-(dimethylamino)piperidin-1-yl)-1,2,3,4-tetrahydroisoquinoline-1-carboxamide, bis-TFA salt] | 
< 5 | 4.94 | CN(C)C1CCN(c2cccc3c2CCN(C(=O)c2cnn(-c4cccc(Cl)c4F)c2)C3C(=O)Nc2ccc(C(=O)O)cc2)CC1 (stereo not shown) [Example 50, 4-(2-(1-(3-chloro-2-fluorophenyl)-1H-pyrazole-4-carbonyl)-5-(4-(dimethylamino)piperidin-1-yl)-1,2,3,4-tetrahydroisoquinoline-1-carboxamido)benzoic acid, bis-TFA salt] | 
< 5 |  | CN(C)C(=O)C1CCN(c2cccc3c2CCN(C(=O)C2CC(c4cccc(Cl)c4F)=NO2)C3C(=O)Nc2ccc(C(=O)O)cc2)CC1 (single isomer, unassigned) [Example 279, 4-(2-(3-(3-chloro-2-fluoropheny)-4,5-dihydroisoxazole-5-carbonyl)-5-(4-(dimethylcarbamoyl)piperidin-1-yl)-1,2,3,4-tetrahydroisoquinoline-1-carboxamido)benzoic acid, TFA salt] | Ki ([2]; measured at 25° C. (no asterisk), TFA salt): 30.8 nM
6.65 | 9.65 | CN(C)C1CCN(c2cccc3c2CCN(C(=O)c2cnn(-c4cccc(Cl)c4F)c2)C3C(=O)Nc2ccc(-c3ncco3)cc2)CC1 (stereo not shown) [Example 93, 2-(1-(3-Chloro-2-fluorophenyl)-1H-pyrazole-4-carbonyl)-5-(4-(dimethylamino)piperidin-1-yl)-N-(4-(oxazol-2-yl)phenyl)-1,2,3,4-tetrahydroisoquinoline-1-carboxamide, bis-TFA salt] | 
< 5 | 41.1 | CN(C)C(=O)C1CCN(c2cccc3c2CCN(C(=O)c2cnn(-c4cccc(Cl)c4F)c2N)C3C(=O)Nc2ccc(C(=O)O)cc2)CC1 (stereo not shown) [Example 317, 4-(2-(5-Amino-1-(3-chloro-2-fluorophenyl)-1H-pyrazole-4-carbonyl)-5-(4-(dimethylcarbamoyl)piperidin-1-yl)-1,2,3,4-tetrahydroisoquinoline-1-carboxamido)benzoic acid, TFA salt] | 
< 5 | 10.1 | CN(C)C(=O)C1CCN(c2cccc3c2CCN(C(=O)c2cnn(-c4cccc(Cl)c4F)c2)C3C(=O)Nc2ccc(C(=O)O)cc2)CC1 (stereo not shown) [Example 59, 4-(2-(1-(3-chloro-2-fluorophenyl)-1H-pyrazole-4-carbonyl)-5-(4-(dimethylcarbamoyl)piperidin-1-yl)-1,2,3,4-tetrahydroisoquinoline-1-carboxamido)benzoic acid, TFA salt] | 
54.5 | 340 | CN(C)C1CCN(c2cccc3c2CCN(C(=O)c2cnn(-c4cccc(Cl)c4F)c2)[C@H]3C(=O)Nc2ccc(C(=O)O)cc2)CC1 (single isomer, unassigned) [Example 51, bis-TFA salt] | 
< 5 | 10.3 | COC1CCN(c2cccc3c2CCN(C(=O)c2cn(-c4cccc(Cl)c4F)nn2)[C@@H]3C(=O)Nc2ccc(C(=O)O)cc2)CC1 [Example 314, (S)-4-(2-(1-(3-chloro-2-fluorophenyl)-1H-1,2,3-triazole-4-carbonyl)-5-(4-methoxypiperidin-1-yl)-1,2,3,4-tetrahydroisoquinoline-1-carboxamido)benzoic acid, TFA salt] | 
74.6 | 399 | CN(C)C(=O)C1CCN(c2cccc3c2CCN(C(=O)c2cn(-c4cccc(Cl)c4F)cn2)[C@H]3C(=O)Nc2ccc(C(=O)O)cc2)CC1 (single isomer, unassigned) [Example 62, TFA salt] | 
< 5 | 1.39 | CN(C)C1CCN(c2cccc3c2CCN(C(=O)c2cn(-c4cccc(Cl)c4F)nn2)[C@@H]3C(=O)Nc2ccc(C(=O)O)cc2)CC1 (single isomer, unassigned) [Example 49, bis-TFA salt] | 
